Source: PubChem BioAssay AID248 (DTP/NCI, 2004)
Where “and” joins values, the source holds several entries; their conditions need not be identical. Equal entries are not always repeated. Toxic doses and inconclusive results are not listed. No stated cut-off is given here; in the data, active means T/C of 150% or more; inactive means T/C below 125%. Square brackets hold non-standard residues; d marks the D form. Peptide text beside a SMILES is read from it. ξ: configuration not given here. ξF = NC(Cc1ccccc1)C(=O)O

Tested on: L1210 leukemia ip in BDF1 mice, survival T/C
Test: NCI In Vivo Anticancer Drug Screen. Data for tumor model L1210 Leukemia (intraperitoneal) in B6D2F1 (BDF1) mice
Settings: endpoint: mean survival time, higher = longer survival
How it was run: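 Survival endpoint. Drug-treated group vs vehicle group, expressed as T divided by C. Tumor passaged by transplantation.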

[1] = dose: 100.0 mg/kg/injection, schedule: Q01DX009 (ip), vehicle: saline with Tween-80
[2] = dose: 100.0 mg/kg/injection, schedule: Q04DX003 (ip), vehicle: saline with Tween-80
[3] = dose: 200.0 mg/kg/injection, schedule: Q01DX009 (ip), vehicle: saline with Tween-80
[4] = dose: 200.0 mg/kg/injection, schedule: Q04DX003 (ip), vehicle: saline with Tween-80
[5] = dose: 400.0 mg/kg/injection, schedule: Q01DX009 (ip), vehicle: saline with Tween-80
[6] = dose: 400.0 mg/kg/injection, schedule: Q04DX003 (ip), vehicle: saline with Tween-80
[7] = dose: 100.0 mg/kg/injection, schedule: Q01DX009 (ip), vehicle: Klucel (hydroxypropylcellulose) (HPC)
[8] = dose: 200.0 mg/kg/injection, schedule: Q01DX009 (ip), vehicle: Klucel (hydroxypropylcellulose) (HPC)
[9] = dose: 400.0 mg/kg/injection, schedule: Q01DX009 (ip), vehicle: Klucel (hydroxypropylcellulose) (HPC)
[10] = dose: 100.0 mg/kg/injection, schedule: Q01DX001 (ip), vehicle: saline
[11] = dose: 200.0 mg/kg/injection, schedule: Q01DX001 (ip), vehicle: saline
[12] = dose: 400.0 mg/kg/injection, schedule: Q01DX001 (ip), vehicle: saline
[13] = dose: 50.0 mg/kg/injection, schedule: Q01DX009 (ip), vehicle: saline with Tween-80
[14] = dose: 100.0 mg/kg/injection, schedule: Q04DX003 (ip), vehicle: Klucel (hydroxypropylcellulose) (HPC)
[15] = dose: 200.0 mg/kg/injection, schedule: Q04DX003 (ip), vehicle: Klucel (hydroxypropylcellulose) (HPC)
[16] = dose: 400.0 mg/kg/injection, schedule: Q04DX003 (ip), vehicle: Klucel (hydroxypropylcellulose) (HPC)
[17] = dose: 100.0 mg/kg/injection, schedule: Q04DX003 (ip), vehicle: saline
[18] = dose: 200.0 mg/kg/injection, schedule: Q04DX003 (ip), vehicle: saline
[19] = dose: 400.0 mg/kg/injection, schedule: Q04DX003 (ip), vehicle: saline

Measured: T/C

CC(=O)C(C)(CCC(=O)NC(C)(C)C)CCC(=O)NC(C)(C)C
inactive: [1] 94 % of control | [2] 95 % of control | [3] 100 % of control | [4] 95 % of control | [5] 93 % of control | [6] 93 % of control

O=S(=O)(O)CCN1CCN(CCS(=O)(=O)O)CC1
inactive: [7] 95 % of control | [8] 95 % of control | [9] 101 % of control

NC(=O)c1nnc(-c2ccc(Cl)cc2)[nH]c1=O
inactive: [2] 98 % of control | [4] 98 % of control | [6] 98 % of control

COc1ccc(Cl)cc1/C=C/C=O
inactive: [10] 91 % of control | [11] 92 % of control | [12] 102 % of control

CC(C)(CBr)COC(=O)Nc1ccc2ccccc2c1
inactive: [13] 95 % of control | [1] 95 % of control | [3] 88 % of control

COC(=O)C(C)C(C)(O)C(C)(C)C (stereo not given)
inactive: [2] 101 % of control

O=C(SCCSC(=O)c1ccccc1)c1ccccc1
inactive: dose: 75.0 mg/kg/injection, schedule: Q04DX003 (ip), vehicle: other 98 % of control | dose: 150.0 mg/kg/injection, schedule: Q04DX003 (ip), vehicle: other 106 % of control | dose: 300.0 mg/kg/injection, schedule: Q04DX003 (ip), vehicle: other 112 % of control

CCCCCCCCCCCCCC(=O)OCC(C)C
inactive: dose: 222.0 mg/kg/injection, schedule: Q01DX Z (ip), vehicle: saline 94 % of control | dose: 333.0 mg/kg/injection, schedule: Q01DX Z (ip), vehicle: saline 90 % of control | dose: 500.0 mg/kg/injection, schedule: Q01DX Z (ip), vehicle: saline 94 % of control

CCN(C(=O)Nc1ccc([N+](=O)[O-])cc1OC)c1cccc(C)c1
inactive: [7] 94 % of control | [8] 97 % of control | [9] 100 % of control

O=C1Sc2ccccc2C1=O
inactive: [10] 94 % of control | [14] 91 % of control | [11] 103 % of control | [15] 94 % of control | [16] 102 % of control

S=C(Nc1ccccc1)Nc1ccc2ccccc2c1
inactive: [14] 100 % of control | [15] 94 % of control | [16] 110 % of control

CC(=O)COc1cccc(Cl)c1Cl
inactive: [1] 98 % of control | [3] 95 % of control | [5] 101 % of control

CCc1ccccc1NC(=O)Nc1nccs1
inactive: [7] 116 % of control | [8] 110 % of control

NCC(=O)NCC(=O)NC(Cc1ccccc1)C(=O)O (stereo not drawn) (H-Gly-Gly-[ξF]-OH)
inactive: dose: 100.0 mg/kg/injection, schedule: Q01DX009 (ip), vehicle: saline 109 % of control | [17] 110 % of control | dose: 200.0 mg/kg/injection, schedule: Q01DX009 (ip), vehicle: saline 107 % of control | [18] 100 % of control | dose: 400.0 mg/kg/injection, schedule: Q01DX009 (ip), vehicle: saline 101 % of control | [19] 101 % of control

CCCCN(C)N=Nc1n[nH]nc1C(N)=O
inactive: dose: 25.0 mg/kg/injection, schedule: Q01DX Z (ip), vehicle: carboxymethylcellulose (CMC) 118 % of control | dose: 50.0 mg/kg/injection, schedule: Q01DX Z (ip), vehicle: carboxymethylcellulose (CMC) 113 % of control | dose: 250.0 mg/kg/injection, schedule: Q01DX001 (ip), vehicle: carboxymethylcellulose (CMC) 123 % of control

CCOC(=O)C(Cc1ccccc1)NP(=O)(OCCCl)OCCCl (stereo not given)
inactive: [7] 104 % of control | [14] 95 % of control | [8] 96 % of control | [15] 95 % of control | [9] 101 % of control | [16] 87 % of control

O=C(Nc1ccc(Cl)c(Cl)c1)O/N=C/c1ccccn1
inactive: [13] 96 % of control | [1] 91 % of control and 92 % of control | [2] 95 % of control | [4] 90 % of control | [5] 91 % of control | [6] 91 % of control

Nc1nc(SCc2ccc([N+](=O)[O-])cc2)c2nc(SCc3ccc([N+](=O)[O-])cc3)n(C3OC(CO)C(O)C3O)c2n1 (stereo not given)
inactive: dose: 50.0 mg/kg/injection, schedule: Q01DX005 (ip), vehicle: saline 102 % of control | dose: 100.0 mg/kg/injection, schedule: Q01DX005 (ip), vehicle: saline 118 % of control | dose: 200.0 mg/kg/injection, schedule: Q01DX005 (ip), vehicle: saline 115 % of control

Nc1nc(N)nc(-c2ccccc2N=NNc2ccc([N+](=O)[O-])cc2)n1
inactive: dose: 100.0 mg/kg/injection, schedule: Q04DX002 (ip), vehicle: Klucel (hydroxypropylcellulose) (HPC) 97 % of control | dose: 200.0 mg/kg/injection, schedule: Q04DX002 (ip), vehicle: Klucel (hydroxypropylcellulose) (HPC) 93 % of control | dose: 400.0 mg/kg/injection, schedule: Q04DX002 (ip), vehicle: Klucel (hydroxypropylcellulose) (HPC) 89 % of control

O=C(O)c1cccc(S)c1
inactive: dose: 100.0 mg/kg/injection, schedule: Q04DX002 (ip), vehicle: saline with Tween-80 113 % of control | dose: 200.0 mg/kg/injection, schedule: Q04DX002 (ip), vehicle: saline with Tween-80 113 % of control

CC(C)(C)c1cccc(C(C)(C)C)c1O
inactive: [17] 102 % of control | [18] 98 % of control | [19] 90 % of control

Nc1ccnc(OCc2ccccc2)n1
inactive: dose: 100.0 mg/kg/injection, schedule: Q01DX001 (ip), vehicle: saline with Tween-80 100 % of control | dose: 200.0 mg/kg/injection, schedule: Q01DX001 (ip), vehicle: saline with Tween-80 100 % of control

Cc1ccc(S(=O)(=O)N2/C(=C/c3ccccc3)C(=O)c3ccccc3-c3ccccc32)cc1
inactive: [10] 96 % of control | [11] 91 % of control | [12] 90 % of control

C/C(=N/NC(N)=O)C1CC2CCC1C2 (stereo not given)
inactive: [10] 98 % of control | dose: 100.0 mg/kg/injection, schedule: Q01DX009 (ip), vehicle: gum acacia 102 % of control | dose: 100.0 mg/kg/injection, schedule: Q04DX003 (ip), vehicle: gum acacia 93 % of control | [11] 101 % of control | dose: 200.0 mg/kg/injection, schedule: Q01DX009 (ip), vehicle: gum acacia 94 % of control | dose: 200.0 mg/kg/injection, schedule: Q04DX003 (ip), vehicle: gum acacia 95 % of control | dose: 400.0 mg/kg/injection, schedule: Q04DX003 (ip), vehicle: gum acacia 90 % of control

COc1cc(NS(=O)(=O)c2ccc(C)cc2)c2c(c1N)C(=O)c1ccccc1C2=O
inactive: [1] 105 % of control | [2] 98 % of control | [3] 94 % of control | [4] 98 % of control | [5] 100 % of control | [6] 93 % of control

O=C1CSC(=NCCN=C2NC(=O)CS2)N1
inactive: [10] 104 % of control | [11] 111 % of control | [12] 102 % of control

CN(C)c1ccccc1C(=O)N/N=C\c1ccc(Cl)cc1
inactive: dose: 100.0 mg/kg/injection, schedule: Q04DX002 (ip), vehicle: gum acacia 96 % of control | dose: 200.0 mg/kg/injection, schedule: Q04DX002 (ip), vehicle: gum acacia 107 % of control | dose: 400.0 mg/kg/injection, schedule: Q04DX002 (ip), vehicle: gum acacia 100 % of control

O=C(Nc1ccccc1C(F)(F)F)OCCOc1ccc([N+](=O)[O-])cc1
inactive: [14] 89 % of control | [15] 87 % of control | [16] 92 % of control
